These are literature values, as cited in US6586417B1, “Ester and ether derivatives of 4-hydroxy 4-androstene-3,17-dione and a method for the regulation of athletic function in humans” (NutriSport Pharmacal, Inc., priority 2002, dated 2003).

One data set relates to rats. To be noted: for weight of the genital organs (testis, ventral prostrate, seminal vesicle) / luteinizing hormone (LH) levels: rats, subcutaneous treatment; for luteinizing hormone (LH) levels: 4-acetoxy-4-androstenedione given against effects of 19-hydroxytestosterone.
Another data set has as its target T1, aromatase enzyme (Homo sapiens, UniProt P11511).
T1 construct: host or cells: endogenous enzyme in treated males (in vivo)
T1 sequence (P11511 1-503): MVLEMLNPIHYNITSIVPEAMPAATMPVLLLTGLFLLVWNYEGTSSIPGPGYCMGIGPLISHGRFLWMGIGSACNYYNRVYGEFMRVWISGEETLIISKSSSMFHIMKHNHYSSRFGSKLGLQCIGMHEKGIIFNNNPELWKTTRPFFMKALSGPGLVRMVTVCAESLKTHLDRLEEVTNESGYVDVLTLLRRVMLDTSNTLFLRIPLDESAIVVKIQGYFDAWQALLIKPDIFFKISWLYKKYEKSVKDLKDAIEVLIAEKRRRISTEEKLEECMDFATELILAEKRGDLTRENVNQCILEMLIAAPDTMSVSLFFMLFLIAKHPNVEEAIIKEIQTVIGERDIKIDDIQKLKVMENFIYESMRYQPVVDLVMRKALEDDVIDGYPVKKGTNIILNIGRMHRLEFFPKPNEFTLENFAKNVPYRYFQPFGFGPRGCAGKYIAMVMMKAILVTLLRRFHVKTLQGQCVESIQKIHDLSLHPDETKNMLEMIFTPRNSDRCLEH
As to conditions: at 24 and 48 weeks.

Data set [1] concerns transformation of testosterone to dihydrotestosterone in the ventral prostrate. To be noted: ventral prostrate of the adult male rat.
A further data set relates to rat follicles. To be noted: rat follicles in vitro.

Take `C[C@]12CC[C@H]3[C@@H](CCC4=CC(=O)CC[C@@]43CO)[C@@H]1CC[C@@H]2O` [19-hydroxytestosterone, reference compound]: in the data set with rats, the “weight of the genital organs (testis, ventral prostrate, seminal vesicle)” value is given as “decrease in weight of the testis, ventral prostrate, seminal vesicle” and the “luteinizing hormone (LH) levels” value was “decrease”.
Regarding `CC1=CC(=O)C=C2CC[C@@H]3[C@H](CC[C@]4(C)C(=O)CC[C@@H]34)[C@@]12C` [atamestane], at aromatase enzyme, the “restoration of androgens over estrogens” value was “restoration of androgens over estrogens”.
For `C[C@]12CCC(=O)C(O)=C1CC[C@@H]1[C@@H]2CC[C@]2(C)C(=O)CC[C@@H]12` [4-hydroxy 4-androstenedione, 4-hydroxy 4-androstene-3, 17-dione], in data set [1], the “inhibition of the transformation of testosterone to dihydrotestosterone” value is “able to inhibit”. Further, the “escape from estrogen suppression” value in the data set with estrogen (500 mg p.o. daily versus single i.m. injection of 125 mg) was “more rapid”. Moreover, the oral absorption entry with estrogen (p.o.) is “adequate oral absorption”.
Regarding `CC(=O)OC1=C2CC[C@@H]3[C@H](CC[C@]4(C)C(=O)CC[C@@H]34)[C@@]2(C)CCC1=O` [4-acetoxy-4-androstenedione], the meiotic activity entry in the data set with rats (rats treated with 19-hydroxytestosterone) is “restored meiotic activity”. For the same molecule, in the data set on rats, the “weight of the genital organs (testis, ventral prostrate, seminal vesicle)” value was “increased the weight of the genital organs” and the “luteinizing hormone (LH) levels” value was “increased luteinizing hormone (LH) levels”. The “stimulation of testosterone, in combination with luteinizing hormone (LH)” value with rat follicles (first eight hours, plus LH) was “greatly stimulate testosterone”. For the same molecule, the “stimulation of testosterone, compound alone” value in the data set on rat follicles (first eight hours, without LH) is listed as “directly stimulate testosterone alone”. The “stimulation of testosterone relative to luteinizing hormone (LH)” value with rat follicles (next sixteen hours, compound alone) is listed as “three times as much as luteinizing hormone (LH)”. Moreover, the “inhibition of the transformation of testosterone to dihydrotestosterone” value in data set [1] is on record as “able to inhibit”.
